Reference: ChEMBL document CHEMBL3611986, “Reversal of P-gp and BCRP-mediated MDR by tariquidar derivatives” (Eur J Med Chem, 2015)
Active and inactive are the calls of the source. No cut-off for these calls is given here.

Experiments:
K562 [1] = experiment: Induction of UIC2 antibody binding to p-glycoprotein in human K562 cells at 0.5 uM preincubated for 10 mins followed by antibody addition measured after 45 mins by flow cytometry relative to tariquidar; assay type: cell-based
[2] = target: T1, ATP-dependent translocase ABCB1 (Homo sapiens, UniProt P08183); experiment: (§1) Inhibition of p-glycoprotein-mediated rhodamine-123 efflux in human K562/p-gp cells at 0.5 uM after 1 hr by flow cytometry relative to tariquidar; assay type: cell-based; conditions: 1 h, 0.5 µM
[3] = Cytotoxicity against human LCC6 cells at 200 nM after 72 hrs by SRB assay; assay type: cell-based; conditions: lcc6, 72 h, 0.2 µM
Hepatocyte = experiment: Cytotoxicity against rat hepatocytes assessed as cell viability after 72 hrs by MTT assay; assay type: cell-based; conditions: for Activity: rat, hepatocytes; for IC50: Rattus norvegicus, Hepatocyte
[4] = Cytotoxicity against human SW620/AD300 cells assessed as cell viability after 48 hrs by MTT assay; assay type: cell-based; conditions: SW-620, 48 h
HCT-116 = experiment: Cytotoxicity against human HCT116 cells assessed as cell viability after 48 hrs by MTT assay; assay type: cell-based; conditions: HCT-116, 48 h
[5] = Cytotoxicity against human HFE cells assessed as cell viability after 72 hrs by MTT assay; assay type: cell-based
[6] = target: T1, ATP-dependent translocase ABCB1; experiment: Inhibition of p-glycoprotein-mediated doxorubicin efflux in human K562/p-gp cells at 1 uM after 1 hr by flow cytometry; assay type: cell-based
[7] = Cytotoxicity against human LCC6 cells expressing p-glycoprotein at 200 nM after 72 hrs by SRB assay; assay type: cell-based; conditions: lcc6, 72 h, 0.2 µM
[8] = target: Multidrug resistance-associated protein 1 (Homo sapiens, UniProt P33527); experiment: Inhibition of MRP1 (unknown origin)-mediated calcein-AM efflux expressed in HEK293/MRP1 cells at 0.5 uM after 1 hr by flow cytometry; assay type: cell-based; conditions: hek293/mrp1, 1 h
[9] = target: T1, ATP-dependent translocase ABCB1; experiment: Inhibition of p-glycoprotein in human LCC6/MDR cells assessed as increase of paclitaxel-induced cytotoxicity at 200 nM after 72 hrs by SRB assay relative to control; assay type: cell-based; conditions: 0.2 µM
[10] = Potentiation of paclitaxel-induced cytotoxicity against human LCC6 cells at 200 nM after 72 hrs by SRB assay relative to control; assay type: functional
SW-620 [11] = experiment: Cytotoxicity against human SW620 cells assessed as cell viability after 48 hrs by MTT assay; assay type: cell-based; conditions: SW-620, 48 h
K562 [12] = experiment: Effect on rhodamine-123 efflux in wild type human K562 cells at 0.5 uM after 1 hr by flow cytometry; assay type: ADME, cell-based; conditions: k562, 1 h
[13] = target: T1, ATP-dependent translocase ABCB1; experiment: Inhibition of p-glycoprotein-mediated rhodamine-123 efflux in human K562/p-gp cells after 1 hr by flow cytometry; assay type: cell-based
Homo sapiens = species: Homo sapiens; experiment: Inhibition of p-glycoprotein (unknown origin) expressed in High five insect cell membranes assessed as ATP hydrolysis after 20 mins by colorimetric ATPase assay
[14] = Cytotoxicity against human CCD-18Co cells assessed as cell viability after 48 hrs by MTT assay; assay type: cell-based
MCF7 [15] = experiment: Potentiation of mitoxantrone-induced cytotoxicity against human MCF7 cells at 200 nM after 72 hrs by SRB assay relative to control; assay type: functional
[16] = target: T2, Broad substrate specificity ATP-binding cassette transporter ABCG2 (Homo sapiens, UniProt Q9UNQ0); experiment: Inhibition of BCRP in human MCF-7 FLV1000 cells assessed as increase of mitoxantrone-induced cytotoxicity at 200 nM after 72 hrs by SRB assay relative to control; assay type: cell-based; conditions: 0.2 µM
T2 sequence (Q9UNQ0 whole entry): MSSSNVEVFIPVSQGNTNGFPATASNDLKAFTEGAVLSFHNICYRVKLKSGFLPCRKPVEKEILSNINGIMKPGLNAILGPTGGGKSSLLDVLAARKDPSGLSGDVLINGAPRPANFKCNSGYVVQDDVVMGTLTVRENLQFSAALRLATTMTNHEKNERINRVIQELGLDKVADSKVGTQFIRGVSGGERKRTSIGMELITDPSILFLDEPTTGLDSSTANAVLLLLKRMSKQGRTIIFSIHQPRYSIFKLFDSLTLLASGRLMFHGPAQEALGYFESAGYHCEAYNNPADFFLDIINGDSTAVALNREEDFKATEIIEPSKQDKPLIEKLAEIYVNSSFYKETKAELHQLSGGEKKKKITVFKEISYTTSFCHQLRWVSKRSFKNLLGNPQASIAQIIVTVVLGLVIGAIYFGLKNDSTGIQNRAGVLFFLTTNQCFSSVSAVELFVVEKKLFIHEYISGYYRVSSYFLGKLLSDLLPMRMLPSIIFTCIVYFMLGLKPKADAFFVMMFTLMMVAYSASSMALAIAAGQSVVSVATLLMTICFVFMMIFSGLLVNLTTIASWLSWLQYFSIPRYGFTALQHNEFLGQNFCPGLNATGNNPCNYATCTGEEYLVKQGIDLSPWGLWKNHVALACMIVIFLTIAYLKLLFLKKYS

HepG2 [17] = experiment: Cytotoxicity against human HepG2 cells at 200 nM after 72 hrs by SRB assay; assay type: cell-based; conditions: hepg2, 72 h, 0.2 µM
P-glycoprotein (ABCB1) = P-glycoprotein (ABCB1) (Homo sapiens, UniProt P08183); experiment: as §1; assay type: cell-based; conditions: K562/p-gp cells, probe rhodamine-123
MCF7 [18] = experiment: Cytotoxicity against human MCF7 cells at 200 nM after 72 hrs by SRB assay; assay type: cell-based; conditions: mcf7, 72 h, 0.2 µM
SW-620 [19] = experiment: Cytotoxicity against human SW620 cells at 200 nM after 72 hrs by SRB assay; assay type: cell-based; conditions: sw-620, 72 h, 0.2 µM
HepG2 [20] = experiment: Potentiation of doxorubicin-induced cytotoxicity against human HepG2 cells at 200 nM after 72 hrs by SRB assay relative to control; assay type: functional
SW-620 [21] = experiment: Potentiation of doxorubicin-induced cytotoxicity against human SW620 cells at 200 nM after 72 hrs by SRB assay relative to control; assay type: functional
HepG2 [22] = experiment: Cytotoxicity against human HepG2 cells expressing p-glycoprotein at 200 nM after 72 hrs by SRB assay; assay type: cell-based; conditions: hepg2, 72 h, 0.2 µM
[23] = Cytotoxicity against human SW620/AD300 cells expressing p-glycoprotein at 200 nM after 72 hrs by SRB assay; assay type: cell-based; conditions: sw-620, 72 h, 0.2 µM
[24] = target: T1, ATP-dependent translocase ABCB1; experiment: Inhibition of p-glycoprotein in human SW620/AD300 cells assessed as increase of doxorubicin-induced cytotoxicity at 200 nM after 72 hrs by SRB assay relative to control; assay type: cell-based; conditions: sw-620, 72 h, 0.2 µM
[25] = target: T2, Broad substrate specificity ATP-binding cassette transporter ABCG2; experiment: (§2) Inhibition of BCRP-mediated pheophorbide-A efflux in human K562/BCRP cells at 0.5 uM after 1 hr by flow cytometry; assay type: cell-based; conditions: k562/bcrp, 1 h, 0.5 µM
[26] = target: T1, ATP-dependent translocase ABCB1; experiment: Inhibition of p-glycoprotein in human HepG2 cells assessed as increase of doxorubicin-induced cytotoxicity at 200 nM after 72 hrs by SRB assay relative to control; assay type: cell-based; conditions: hepg2, 72 h, 0.2 µM
[27] = target: T2, Broad substrate specificity ATP-binding cassette transporter ABCG2; experiment: Induction of BCRP (unknown origin) expressed in High five insect cell membranes assessed as ATP hydrolysis after 10 mins by colorimetric ATPase assay
[28] = target: T2, Broad substrate specificity ATP-binding cassette transporter ABCG2; experiment: Induction of 5D3 antibody binding to BCRP in human K562 cells at 0.5 uM preincubated for 10 mins followed by antibody addition measured after 45 mins by flow cytometry relative to tariquidar; assay type: cell-based; conditions: k562, 0.75 h
[29] = Cytotoxicity against human MCF-7 FLV1000 cells expressing BCRP at 200 nM after 72 hrs by SRB assay; assay type: ADME, cell-based; conditions: mcf-7 flv1000, 72 h, 0.2 µM
BCRP (ABCG2) = target: T3, BCRP (ABCG2) (Homo sapiens, UniProt Q9UNQ0); experiment: as §2; assay type: cell-based; conditions: K562/BCRP cells, probe pheophorbide-A
T3 sequence (Q9UNQ0 whole entry): T2 sequence (Q9UNQ0 whole entry)

Sequence of Multidrug resistance-associated protein 1 (P33527 whole entry): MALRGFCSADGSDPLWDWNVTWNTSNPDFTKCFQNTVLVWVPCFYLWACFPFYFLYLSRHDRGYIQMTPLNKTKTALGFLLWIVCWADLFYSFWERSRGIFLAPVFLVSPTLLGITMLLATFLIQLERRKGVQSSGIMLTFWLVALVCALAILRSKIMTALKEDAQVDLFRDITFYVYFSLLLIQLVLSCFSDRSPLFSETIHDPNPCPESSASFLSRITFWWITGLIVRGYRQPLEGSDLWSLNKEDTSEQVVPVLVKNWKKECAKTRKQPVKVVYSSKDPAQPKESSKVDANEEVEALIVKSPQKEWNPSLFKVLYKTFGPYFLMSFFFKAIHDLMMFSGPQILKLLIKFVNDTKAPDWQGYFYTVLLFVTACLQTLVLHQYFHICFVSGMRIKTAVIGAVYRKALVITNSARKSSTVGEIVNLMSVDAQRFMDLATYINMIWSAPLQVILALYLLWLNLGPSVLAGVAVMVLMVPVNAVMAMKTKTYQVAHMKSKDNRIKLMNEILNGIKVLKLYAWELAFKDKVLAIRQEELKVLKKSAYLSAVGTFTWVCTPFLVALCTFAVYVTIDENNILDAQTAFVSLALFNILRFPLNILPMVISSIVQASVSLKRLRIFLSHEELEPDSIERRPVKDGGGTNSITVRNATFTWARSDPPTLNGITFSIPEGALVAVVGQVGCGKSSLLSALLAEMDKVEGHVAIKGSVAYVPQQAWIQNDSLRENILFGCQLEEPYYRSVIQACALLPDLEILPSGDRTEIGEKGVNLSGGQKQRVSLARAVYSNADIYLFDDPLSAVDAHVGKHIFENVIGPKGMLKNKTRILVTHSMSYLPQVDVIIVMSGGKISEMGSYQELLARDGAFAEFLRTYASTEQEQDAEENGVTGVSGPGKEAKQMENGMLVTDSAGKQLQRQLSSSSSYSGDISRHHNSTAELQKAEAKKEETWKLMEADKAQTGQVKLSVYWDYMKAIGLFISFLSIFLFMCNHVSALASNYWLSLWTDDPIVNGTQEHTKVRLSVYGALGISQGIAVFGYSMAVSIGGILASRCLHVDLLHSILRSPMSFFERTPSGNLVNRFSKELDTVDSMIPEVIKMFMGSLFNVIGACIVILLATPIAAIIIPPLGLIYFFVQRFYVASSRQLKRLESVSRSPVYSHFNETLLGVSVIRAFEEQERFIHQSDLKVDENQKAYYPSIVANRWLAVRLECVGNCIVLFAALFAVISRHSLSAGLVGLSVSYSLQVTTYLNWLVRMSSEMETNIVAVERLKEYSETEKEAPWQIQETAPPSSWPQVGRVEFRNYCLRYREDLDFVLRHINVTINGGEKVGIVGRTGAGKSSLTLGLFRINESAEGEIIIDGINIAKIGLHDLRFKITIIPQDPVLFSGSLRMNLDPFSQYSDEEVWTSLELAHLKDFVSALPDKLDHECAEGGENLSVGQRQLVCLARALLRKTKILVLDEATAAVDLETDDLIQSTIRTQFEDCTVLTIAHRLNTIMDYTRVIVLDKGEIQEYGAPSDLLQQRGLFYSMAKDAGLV
T1 sequence (P08183 whole entry): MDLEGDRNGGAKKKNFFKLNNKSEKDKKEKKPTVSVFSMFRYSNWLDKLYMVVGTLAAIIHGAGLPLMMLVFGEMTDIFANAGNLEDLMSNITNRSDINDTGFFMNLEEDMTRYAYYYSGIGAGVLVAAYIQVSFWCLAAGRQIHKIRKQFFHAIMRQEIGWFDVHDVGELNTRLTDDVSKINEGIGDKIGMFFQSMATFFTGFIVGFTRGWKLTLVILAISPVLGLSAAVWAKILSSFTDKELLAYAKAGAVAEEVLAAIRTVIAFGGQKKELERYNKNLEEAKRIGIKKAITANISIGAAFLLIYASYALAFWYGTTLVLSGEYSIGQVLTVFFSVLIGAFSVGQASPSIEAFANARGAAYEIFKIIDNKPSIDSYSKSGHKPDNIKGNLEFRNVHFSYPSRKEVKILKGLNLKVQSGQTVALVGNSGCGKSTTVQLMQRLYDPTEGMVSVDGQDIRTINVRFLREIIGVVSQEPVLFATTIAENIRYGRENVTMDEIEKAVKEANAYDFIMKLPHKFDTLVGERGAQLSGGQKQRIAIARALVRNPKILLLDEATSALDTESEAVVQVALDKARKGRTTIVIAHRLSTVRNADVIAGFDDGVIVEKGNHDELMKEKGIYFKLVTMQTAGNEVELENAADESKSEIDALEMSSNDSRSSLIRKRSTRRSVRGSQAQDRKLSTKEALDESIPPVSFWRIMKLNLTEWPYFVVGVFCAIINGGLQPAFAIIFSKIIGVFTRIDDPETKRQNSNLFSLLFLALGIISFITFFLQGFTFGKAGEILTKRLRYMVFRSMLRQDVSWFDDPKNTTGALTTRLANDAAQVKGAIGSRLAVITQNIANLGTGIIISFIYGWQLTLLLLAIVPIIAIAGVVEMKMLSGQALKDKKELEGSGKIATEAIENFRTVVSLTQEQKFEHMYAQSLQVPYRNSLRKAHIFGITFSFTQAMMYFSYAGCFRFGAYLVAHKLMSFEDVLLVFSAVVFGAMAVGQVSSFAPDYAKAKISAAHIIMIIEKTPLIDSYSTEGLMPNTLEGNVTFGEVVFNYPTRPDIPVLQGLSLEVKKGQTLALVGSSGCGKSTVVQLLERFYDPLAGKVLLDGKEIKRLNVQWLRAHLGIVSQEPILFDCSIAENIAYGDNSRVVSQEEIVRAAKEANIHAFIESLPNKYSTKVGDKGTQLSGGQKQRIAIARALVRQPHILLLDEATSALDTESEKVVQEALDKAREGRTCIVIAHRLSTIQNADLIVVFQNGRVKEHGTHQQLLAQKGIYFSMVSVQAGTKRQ
Sequence of P-glycoprotein (ABCB1) (P08183 whole entry): as above

Row | Compound | inhibition (INH) [2] | inhibition (INH) [8] | inhibition (INH) [13] | Activity [27] | Activity [28] | Activity (K562 [1]) | Activity [3] | IC50 [4] [µM] | IC50 (HCT-116) [µM] | IC50 [5] [µM] | Activity [7] | fold change (FC) [9] | fold change (FC) [10] | IC50 (SW-620 [11]) [µM] | Activity (K562 [12]) | inhibition (Homo sapiens) | IC50 [14] [µM] | fold change (FC) (MCF7 [15]) | fold change (FC) [16] | Activity (MCF7 [18]) | further results
1 | COc1cc2c(cc1OC)CN(CCc1ccc(NC(=O)c3ccccc3NC(=O)/C=C/c3ccccc3)cc1)CC2 | Active | Not Active | Dose-dependent effect | Active | 118.6% | 46.3% | Non-toxic | > 100 | > 100 | > 20 | Non-toxic | 33 | 1.6 | > 100 | Non-toxic | Dose-dependent effect | > 100 | 1.5 | 64 | Non-toxic | IC50 (Hepatocyte): 100 µM; inhibition at 1 h, 0.5 µM (BCRP (ABCG2)): 60%; Activity [29]: Non-toxic
2 | COc1cc2c(cc1OC)CN(CCc1ccc(NC(=O)c3ccccc3NC(=O)c3ccco3)cc1)CC2 | Active | Not Active | Dose-dependent effect | Active | 149.4% | 35.5% | Non-toxic | > 100 | > 100 | > 100 | Non-toxic | 46 | 1.3 | > 100 | Non-toxic | Dose-dependent effect | > 100 | 1.4 | 2.1 | Non-toxic | Activity (HepG2 [17]): Non-toxic; Activity (SW-620 [19]): Non-toxic; fold change (FC) (HepG2 [20]): 1.09; fold change (FC) (SW-620 [21]): 2.1; Activity (Hepatocyte): Non-toxic; Activity (HepG2 [22]): Non-toxic; Activity [23]: Non-toxic; fold change (FC) [24]: 2.63; inhibition (INH) [25]: Active; fold change (FC) [26]: 3; Activity [29]: Non-toxic
3 | COc1cc2c(cc1OC)CN(CCc1ccc(NC(=O)c3ccccc3NC(=O)c3ccc(F)cc3[N+](=O)[O-])cc1)CC2 | Active | Not Active | Dose-dependent effect | Active | 119.1% | 57.3% | Non-toxic | > 100 | > 100 | > 10 | Non-toxic | 35 | 1.1 | > 100 | Non-toxic | Dose-dependent effect | > 100 | 1.7 | 46 | Non-toxic | Activity (HepG2 [17]): Non-toxic; Activity (SW-620 [19]): Non-toxic; fold change (FC) (HepG2 [20]): 0.76; fold change (FC) (SW-620 [21]): 1.6; IC50 (Hepatocyte): 100 µM; Activity (HepG2 [22]): Non-toxic; Activity [23]: Non-toxic; fold change (FC) [24]: 3.62; inhibition at 1 h, 0.5 µM (BCRP (ABCG2)): 60%; fold change (FC) [26]: 0.36; Activity [29]: Non-toxic

The next lines start with results.

Row | inhibition (INH) [2] | inhibition (INH) [8] | inhibition (INH) [13] | Activity [27] | Activity [28] | Compound | Activity (K562 [1]) | Activity [3] | IC50 [4] [µM] | IC50 (HCT-116) [µM] | IC50 [5] [µM] | Activity [7] | fold change (FC) [9] | fold change (FC) [10] | IC50 (SW-620 [11]) [µM] | Activity (K562 [12]) | inhibition (Homo sapiens) | IC50 [14] [µM] | fold change (FC) (MCF7 [15]) | fold change (FC) [16] | Activity (MCF7 [18]) | further results
4 | Active | Not Active | Dose-dependent effect |  |  | COc1cc2c(cc1OC)CN(CCc1ccc(NC(=O)c3ccccc3N(S(=O)(=O)c3ccc(Br)cc3)S(=O)(=O)c3ccc(Br)cc3)cc1)CC2 | 47% | Non-toxic | > 100 | > 100 | > 5 | Non-toxic | 36 | 1.3 | > 100 | Non-toxic | Dose-dependent effect | > 100 |  |  |  | Activity (Hepatocyte): Non-toxic; inhibition (INH) [6]: Active
5 |  | Not Active | Dose-dependent effect | Active | 90.7% | COc1cc2c(cc1OC)CN(CCc1ccc(NC(=O)c3ccccc3NC(=O)c3cnc4ccccc4c3)cc1)CC2 | 93.2% | Non-toxic | > 100 | > 100 | > 5 | Non-toxic | 2.8 | 0.9 | > 100 | Non-toxic | Dose-dependent effect | > 100 | 1.3 | 2.9 | Non-toxic | Activity (HepG2 [17]): Non-toxic; inhibition at 1 h, 0.5 µM (P-glycoprotein (ABCB1)): 90.5%; Activity (SW-620 [19]): Non-toxic; fold change (FC) (HepG2 [20]): 0.29; fold change (FC) (SW-620 [21]): 0.36; IC50 (Hepatocyte): 50 µM; Activity (HepG2 [22]): Non-toxic; Activity [23]: Non-toxic; inhibition (INH) [6]: Active; fold change (FC) [24]: 6.23; inhibition (INH) [25]: Active; fold change (FC) [26]: 0.38; Activity [29]: Non-toxic
6 |  | Not Active |  |  | Not Active | COc1cc2c(cc1OC)CN(CCc1ccc(NC(=O)c3ccccc3NS(=O)(=O)c3ccc(C(C)(C)C)cc3)cc1)CC2 | inactive |  | > 100 | > 100 | > 100 |  |  |  | > 100 |  |  | > 100 |  |  |  | inhibition (INH) [6]: Active
